The test system of experiment [1] is COX-2 protein expression in LPS-induced RAW 264.7 cells. Put plainly: Inhibition of LPS-induced COX-2 protein expression (Western blotting). Format: cell-based, mouse. To be noted: treatment for 18 hrs, LPS 0.5 μg/mL. From the text: (§1) To confirm whether the inhibition of NO production by kombo butter, kombo butter acid extract, and purified sargaquinoic acid (KB-1), sargachromenol (KB-2), and sargahydroquinoic acid (KB-3) was due to reduced enzymatic activity or protein expression of inducible nitric oxide synthase (iNOS), we investigated the effect of kombo butter and its constituents on iNOS protein expression by Western blotting. In addition to iNOS, we also studied the effect of kombo butter and its constituents on the expression of cyclooxygenase-2 (COX-2), an enzyme critical to the production of inflammatory prostaglandins and known to be activated in LPS-stimulated macrophages.
(§2) RAW 264.7 mouse macrophage cells were cultured in Dulbecco's Modified Eagle Medium (DMEM) supplemented with 15% fetal bovine serum (FBS) and an antibiotic and antimycotic mixture. Cell suspensions of 50,000 cells/well were cultured in quadruplicate in flat bottom microtiter plates for 12 hrs. […]
(§3) An equal amount of protein (40 μg) from each sample was resolved by SDS-polyacrylamide gel electrophoresis. […] Specific bands were detected using enhanced chemiluminescence's detection system (Amersham-Pharmacia Biotech, NJ, USA) and the membrane was exposed to X-ray film. […]
(Immunoblotting shows a protein as a band on a membrane.)

The nature of experiment [2]: DPPH free radical scavenging assay. Format: biochemical. To be noted: DPPH 1.0×10^−4 M in ethanol, half an hour, 517 nm. The method, then:
Kombo butter, kombo butter acid extract, and purified sargaquinoic acid (KB-1), sargachromenol (KB-2), and sargahydroquinoic acid (KB-3) were tested for antioxidant activity by both the 2,2′-diphenylpicrylydrazyl (DPPH) and the 2,2′-azinobis-(3-ethylbenzothiazoline-6-sulfonic acid) (ABTS) free radical scavenging assays. A solution of DPPH in ethanol was prepared at a final concentration of 1.0×10^−4 M. Each of the potential actives under investigation was added to the DPPH solution at a number of different concentrations. The solutions were mixed, shaken vigorously and kept in the dark for half an hour. The absorbance of the samples was then measured at 517 nm with an HP Model 8453 spectrophotometer using a blank of ethanol without DPPH. All tests were run in triplicate and averaged. Differences among individual measurements were always less than 5% [26].
(Loss of DPPH colour is used to gauge radical scavenging.)

For experiment [3] the following is noted: compared with α-tocopherol and indomethacin; cited from earlier work.
The test system of experiment [4] is COX-2 mRNA expression in LPS-induced RAW 264.7 mouse macrophage cells. Put plainly: Inhibition of LPS-induced COX-2 mRNA expression (RT-PCR). The format is cell-based. To be noted: for inhibition of COX-2 mRNA expression: 12 hrs; for inhibition of COX-2 mRNA expression (in words): within the concentration ranges assayed. The procedure: (§4) Total RNA was isolated using Tri-reagent (Sigma, MO, USA) and 5 μg of this RNA was reverse transcribed to make cDNA using random hexamers and Superscript™ reverse transcriptase (Invitrogen, CA, USA) according to the manufacturer's instructions. The linear range of amplification of iNOS and COX-2 cDNA was determined using gene specific primers from Ambion, Inc. (TX, USA) according to the manufacturer's instructions. Briefly, the optimum amount of 18S primer and competitor for iNOS and COX-2 genes were determined. […] Finally, PCR products from each sample (10 μl) were resolved by electrophoresis in a 2% agarose gel (Fisher Biotech, NJ, USA) and stained with ethidium bromide. An image of the gel was captured after the appropriate exposure time and densitometric analysis was performed using image analysis software (Scion, NIH). For relative quantification, 18S ribosomal RNA was also amplified in same reaction as an internal control. Quantitative analysis of the expression of iNOS and COX-2 mRNA was performed by taking the ratio of the integrated density of each band to that of the 18S RNA band in the same sample.

Experiment [5] deals with iNOS mRNA expression in LPS-induced RAW 264.7 mouse macrophage cells. Put plainly: Inhibition of LPS-induced iNOS mRNA expression (RT-PCR). The format is cell-based. Conditions: 12 hrs. The method, then:
as §4

In experiment [6] the test system is TPA-induced mouse ear edema. To be noted: compounds isolated from Roldana barba-johannis; compared with α-tocopherol; cited from earlier work.
Experiment [7] is described as follows: ABTS free radical scavenging assay (TEAC). Conditions: Trolox equivalent of a 1.0 mM solution. Format: biochemical. The procedure:
For the ABTS assay, a solution of ABTS in water was prepared at a final concentration of 7 mM. The ABTS radical cation (ABTS^.+) was produced by adding solid potassium persulfate to the ABTS solution sufficient to yield a final concentration of 2.45 mM potassium persulfate in the mixture and allowing the mixture to stand in the dark at room temperature for 12-16 hours before use. The ABTS^.+ solution was diluted with methanol to an absorbance of 0.70 at 734 nm. Stock solutions of each of the potential actives under investigation were diluted with ethanol to ensure 20-80% inhibition of the radical cation upon introduction of a 10 μL aliquot of the active solution to 1 ml of diluted ABTS^.+ solution. The absorbance was measured beginning exactly 1 min after initial mixing and thereafter up to 6 min. Trolox was used as the standard, and the activity of each of the potential actives was expressed as a Trolox Equivalent Antioxidant Capacity (TEAC) value. The TEAC value represents the millimolar concentration of a Trolox solution having an equivalent antioxidant capacity to a 1.0 mM solution of the potential active under investigation.

For experiment [8], the system named is iNOS protein expression in LPS-induced RAW 264.7 cells. As to the kind of experiment: Inhibition of LPS-induced iNOS protein expression (Western blotting). Conditions: treatment for 18 hrs, LPS 0.5 μg/mL. Format: cell-based, mouse.
From the text: as §1, §2, §3

For experiment [9] the following is noted: in vitro, compared with α-tocopherol; cited from earlier work.

The values below come from US7371413B2, “Antioxidant and anti-inflammatory activity of compounds and preparations from African nutmeg seeds” (Rutgers, The State University, priority 2003, dated 2008).

As for `CC(C)=CCC/C(=C/CC/C(C)=C/CCC1(C)C=Cc2cc(O)cc(C)c2O1)C(=O)O` (centres unmarked) [Sargachromenol, sargachromenol], the “inhibition of COX-2 protein expression” value in experiment [1] is “markedly inhibited”. For the same molecule, in [2], the “DPPH free radical scavenging IC50” value is 17.3 µg/mL. Further, in experiment [3], the “antioxidant activity (DPPH radical scavenging)” value is recorded as “better than those of either α-tocopherol or indomethacin”. Moreover, the “inhibition of COX-2 mRNA expression” value in experiment [4] (50 μM) was found to be 16%. In addition, the “inhibition of iNOS mRNA expression (in words)” value in experiment [5] (50 μM) is listed as “exhibited inhibitory activity”. In addition, the anti-inflammatory activity entry in experiment [6] is listed as “exceeded that of α-tocopherol”. Also, the TEAC in experiment [7] turned out to be 0.75 mM.
With `CC(C)=CCC/C(=C/CC/C(C)=C/CC/C(C)=C/Cc1cc(O)cc(C)c1O)C(=O)O` [Sargahydroquinoic acid, sargahydroquinoic acid], the “inhibition of COX-2 mRNA expression” value in [4] (25 μM) is about 12%; in experiment [4] (50 μM), about 19%. Moreover, the results for the “inhibition of iNOS mRNA expression” value in [5] (25 μM) and in [5] (50 μM) were 31% and 74%, respectively.
For `CC(C)=CCC/C(=C\CC/C(C)=C/CC/C(C)=C/CC1=CC(=O)C=C(C)C1=O)C(=O)O` [Sargaquinoic acid, sargaquinoic acid], the “inhibition of iNOS mRNA expression (in words)” value in experiment [5] (50 μM) is listed as “exhibited inhibitory activity”. In experiment [7], the TEAC is on record as 0.15 mM. Further, the “inhibition of iNOS protein expression” value in [8] is on record as “markedly inhibited”.
For the molecule `COc1ccc2c(c1)c(CC(=O)O)c(C)n2C(=O)c1ccc(Cl)cc1` [indomethacin, reference compound], in experiment [4], the “inhibition of COX-2 mRNA expression (in words)” value is “neither of these compounds effected any inhibition”.
For the molecule `CC(=CCCC(C)=CCc1cc(O)cc(C)c1O)CCC=C(C)CCC=C(C)C(=O)O` [kombic acid], the “antioxidant activity with respect to lipid peroxidation” value in experiment [9] is recorded as “either met or exceeded that of α-tocopherol”.
Regarding vitamin E [reference compound], the “inhibition of COX-2 mRNA expression (in words)” value in [4] is recorded as “neither of these compounds effected any inhibition”.
